We go through 91 compounds from a melting point compilation (Tetko et al.; mined from patent text by program, amines drawn as free bases though some values may be those of a salt).

As a reminder, the melting point is the temperature, or range, at which the solid turns liquid.

Some results are limits rather than exact numbers.

The compound `c1cc(NC2=NCCN2)ccc1Cc1ccc(N2CCOCC2)cc1` yielded a melting point of 177 to 179 °C.
The result for `CC(=O)OCc1cc2cc(OCc3ccccc3)ccc2n1Cc1ccc(C(C)(C)C)cc1` reads 132 to 133 °C; that for `Clc1ccc(COc2ccc(Cl)cc2C(c2ccccc2)n2ccnc2)c(Cl)c1` (stereo unspecified), 132 to 134 °C; that for `COC(=O)N1Cc2c(-c3ccc(F)cc3)ncn2-c2ccccc21`, 156 to 160 °C.
The result for `Cc1ccc(S(N)(=O)=O)cc1Br` reads 156 °C; that for `CC(CO)C(O)(Cn1cncn1)c1ccc(Cl)cc1Cl` (single isomer, unassigned; (+)), 110 to 111 °C.
The value for `CC(C)(Oc1ccccc1S(C)(=O)=O)C(=O)O` was 114 to 116 °C; that for `COC(=O)c1c(-c2ccccc2)oc2c(CCl)cccc2c1=O` was 150 °C.
As for `COC1C2=C3C(=CN1OC)OCCC3CC(C(C)=O)C2` (stereo unspecified), the melting point is 100 to 102 °C.
The result for `CCc1nn2c(-c3ccc(Cl)cc3Cl)nc(C)nc2c1N(CC)CC` reads 98 to 99 °C; that for `CSc1nc(Cl)c(-c2c(F)cc(F)cc2F)c(N2CCCC(C)O2)n1` (stereo unspecified), 110 to 111 °C; that for `NC(=O)C(O)C1CC=CCC1` (stereo unspecified), 139 to 141 °C.
The result for `COc1ccc(Br)c(C=O)c1` reads 73 to 74 °C; that for `CS(=O)(=O)N1C[C@H](S)C[C@H]1CSCc1ccccc1`, 102 to 104 °C.
The value for `O=C(CCCC(Cc1cccc2ccccc12)C(=O)O)c1ccccc1` (stereo unspecified) was 134 to 136 °C.
As to `c1cc2cc(-c3nnn[nH]3)ccc2[nH]1`, the melting point is 205 °C.
In the case of `Cc1cccc(S(=O)(=O)Nc2cc(C)c(S(=O)(=O)C[N+](=O)[O-])c(C)c2)c1`, the melting point lay in the range of 179 to 181 °C.
The result for `O=C(NCCCCCCOc1ccccc1C(=O)Nc1ccc(C(=O)N2CCCCc3ccccc32)cc1)c1ccccc1` reads 178 °C.
In turn, `Cc1cc2c(cc1N(Cc1ccccc1)Cc1ccccc1)OC(=O)C2C` (stereo unspecified) returned a melting point of 122 to 123 °C.
Compound `CCCOc1ccc(C=CCCCCC(=O)O)cc1` came in with a melting point of 52 to 53 °C.
The value for `CCCN1CC=C(c2ccc(Cl)cc2)C(C(=O)OCc2ccccc2)C1` (stereo unspecified) was 75 to 76.5 °C.
The result for `CCCCCc1c(C(C)C)nc(C(C)C)c(CO)c1-c1cccc(C)c1` reads 88 to 90 °C.
The result for `Cc1nc(O)cc2sccc12` reads 225 to 227 °C; that for `COc1ccccc1C=CCN1CCc2nc(N)sc2CC1`, 80 to 84 °C.
The compound `O=C(O)CCOc1cccc(/C=C/c2nc3ccccc3s2)c1` had a melting point of 177 to 178 °C.
The value for `CCCc1c(S)ccc2c(C)c(CC(=O)OC)c(=O)oc12` was 131 to 132 °C; that for `O=C(CN1C(=O)c2ccccc2S1(=O)=O)Nc1ccccc1` was 180 to 182 °C; that for `O=C1CCNC(=O)C1C(=O)c1ccc(C(F)(F)F)cc1` (stereo unspecified) was 197 to 200 °C.
Consider `CN1CCN(Cc2ccc(-c3cccc(-c4ccnc5c(C(=O)c6cccs6)cnn45)c3)cc2)CC1`, for which the melting point was in the range of 199 to 202 °C.
The value for `NC(=O)c1ccc(F)c2c1CC(N(CCCCc1c[nH]c3ccc(F)cc13)C1CCC1)CO2` (stereo unspecified) was 122 °C.
Turning to `Cc1c2c(cc3c(=O)c4ccccc4oc13)CC(C(=O)O)O2` (stereo unspecified), the melting point was in the range of 297 to 299 °C.
As for `Cc1nnc(-c2ccnc(NC(=O)NCc3ccccn3)c2)o1`, the melting point was in the range of 202 to 203 °C.
The result for `COc1ccc(-n2cccc2)c([N+](=O)[O-])c1` reads 75.5 to 76.5 °C.
With `CCOC(=O)COCC(=O)c1ccccc1`, the melting point lay within 33 to 35 °C.
The result for `NC(=O)C1(c2ccccc2)OC(=O)c2ccccc21` (stereo unspecified) reads 225 to 227 °C; that for `CCCc1ccc2c(c1)C(=O)N(c1ccc(C(C)C(=O)O)cc1)C2` (stereo unspecified), 175 to 177 °C.
`CCOC(=O)c1c(N)n(CC)c2nc(Cl)ccc2c1=O` registered a melting point of 252 °C.
`CCc1cc2ccccn2c1C(=O)c1ccc(O)cc1` displayed a melting point of 179 to 180 °C.
The value for `OCc1ccc(Oc2cccnc2)c(C(F)(F)F)c1` was 96 °C.
The value for `CC(=O)NCCC1=CCc2ccc3nc(C)oc3c21` was 154 to 156 °C; that for `CN1CCSC1=C[N+](=O)[O-]` was 169 to 171 °C.
Take `N#CC(=Cc1cc2ccccc2c2ccccc12)c1ccncc1`: the melting point lay within 206 to 208 °C.
The value for `O=C(Nc1ccccc1)C1Cc2cc(Br)cc3[nH]c(=O)c(=O)n1c23` (stereo unspecified) was over 300 °C.
The result for `CC(=O)OCCCCCCOc1ccc([N+](=O)[O-])c(C=O)c1` reads 42 to 43 °C.
For the compound `Cc1c(C)c2c(c(C)c1NC(=O)CC(C)(C)C)C(c1ccc(C(C)C)cc1)C1(CCCC1)O2` (stereo unspecified), the melting point fell in the range of 209 to 210 °C.
The result for `O=C(O)c1ccc(Br)cc1-c1cc(Cl)cc(Cl)c1` reads 182 to 186 °C.
Regarding `COc1nc2cc(C(c3ccccc3)n3ccnc3)ccc2[nH]1` (stereo unspecified), the melting point was found to be 110 °C.
The result for `CN(C)CCOc1cccc(CC(Nc2cc(-c3ccc(OCc4ccccc4)cc3)ncn2)C(=O)O)c1` (stereo unspecified) reads 143 °C; that for `Brc1ccc(C2NCCS2)cc1` (stereo unspecified), 105 to 107 °C.
The value for `O=CNC1Cc2ccccc2NC1=O` (stereo unspecified) was 197 to 200 °C; that for `CCCCCSc1ccc(-c2ncc(CCCCC)cn2)cc1` was 52.8 °C; that for `CCNC(=O)c1cnn(C)c1[Si](C)(C)C` was 77 to 81 °C.
The result for `CCCc1nn(-c2ccc(C(F)(F)F)cn2)cc1CCCOc1cccc(CC(=O)O)c1` reads 106 to 107 °C; that for `CC(=NNc1ccc(C2=NNC(=O)CC2)cc1)c1cnccn1`, 197 to 202 °C; that for `O=C(c1ccc(Br)cc1)c1ncccc1O`, 94 to 95 °C.
As for `ONCc1coc(-c2ccccc2)n1`, the melting point is 59 to 61 °C.
The value for `Cc1cc2c(C(=O)O)ccc(C(=O)O)c2cc1C` was 268 to 280 °C; that for `COc1ccc(S(=O)(=O)Nc2ccccc2Nc2ncccn2)cc1` was 193 to 195 °C.
The result for `CC(CCN1c2cccc3cccc(c23)S1(=O)=O)N1CCN(c2ccc(F)cc2)CC1` (stereo unspecified) reads 122 °C; that for `CCCc1cc(NC(=O)c2c(C)nn(C)c2C)c(C)cc1C(OC)(C(F)(F)F)C(F)(F)F`, 132 to 134 °C.
The result for `COc1ccc(Nc2nccc(-c3cccnc3)n2)cc1` reads 121 to 122 °C; that for `CCOCc1nc2c(N)nc3cc(-c4cccnc4)ccc3c2n1Cc1ccc(CNS(C)(=O)=O)cc1`, 228 to 229 °C.
`CC(=O)N1CCC(=O)C(C(c2ccc(C)cc2)c2ccc(C)cc2)C1` (stereo unspecified): the melting point lay in the range of 142 to 144 °C.
`Cc1ccc(=O)[nH]c1C` returned a melting point of 202 to 207 °C.
The result for `CC(C)(C)N1C(=O)c2cnc(-c3ccccc3)nc2N(C(=O)CCl)c2ccccc21` reads 176 to 177 °C; that for `CCCCCCCCCCc1c(C(=O)O)sc2c1sc1c3sc(C(=O)O)c(CCCCCCCCCC)c3sc21`, 316 to 318 °C.
The result for `O=C(c1ccccc1)c1cc(Cl)ccc1C=CCN1C(=O)c2ccccc2C1=O` reads 70 to 72 °C.
Regarding `COC1(c2ccc(F)cc2)CCC(=O)CC1`, the melting point is 57 to 59 °C.
The result for `S=C(Nc1ccccc1)c1ccccn1` reads 45 to 46 °C; that for `Cc1ccc(-c2ccccc2C(=O)Nc2ccc(C(=O)N3C[C@@H]4C[C@@H](O)CN4c4ccccc43)cc2)cc1`, 163 to 164 °C; that for `CSCCSc1nc(C(C)(C)C)n[nH]1`, 114 to 116 °C.
The compound `Oc1c(I)cccc1-c1c(Cl)cccc1Cl` registered a melting point of 51 to 53 °C.
The value for `CCOC(=O)c1c(SCc2ccc(OC)cc2)[nH]c2cc(Cl)c(F)cc2c1=O` was 142 °C; that for `COc1cccc2c(Nc3ccccc3C)c(C(=O)C(C)C)cnc12` was 116 to 118 °C; that for `CN(C)C(=O)COc1ccc2c(c1)C[C@@H](NC[C@H](O)c1ccc(O)c(CO)c1)CC2` was 175 to 176 °C.
Regarding `COc1ccc(-c2cnc(N3CCC(O)CC3)nc2)cc1`, the melting point was in the range of 158 to 160 °C.
The result for `CN1C(=O)CC[C@]2(C)c3ccc(-c4ccc(NC(=O)C(C)(C)C)cc4)cc3CC[C@@H]12` reads over 265 °C.
The value for `COc1ccc(C(=O)NCCCCn2cnc3c(N)nc4ccccc4c32)c(OC)n1` was 175 to 177 °C.
The value for `COc1cc(CN2N=C(c3ccc(OC)c(OC)c3)[C@@H]3CCCC[C@@H]3C2=O)cc(OC)c1` (relative stereo) was 114 to 117 °C.
Compound `CC(=O)NC(=N)NCCSCc1[nH]cnc1C` showed a melting point of 163 to 164 °C.
Take `CS(=O)(=O)c1ccc(-c2cc(C#N)c(=O)[nH]c2-c2ccc(F)cc2)cc1`: the melting point lay in the range of 294 to 296 °C.
The result for `O=C(O)CN1C(=O)SC(=Cc2ccc(OCc3ccccc3)c(OCc3ccccc3)c2)C1=O` reads 167 to 170 °C.
Regarding `O=C1CCC(N2C(=O)c3cccc(CNC(=O)c4cccc(C(F)(F)F)c4F)c3C2=O)C(=O)N1` (stereo unspecified), the melting point is 155 to 157 °C.
The value for `O=C(O)Cc1ccc(OCCNC(=O)C2Cc3ccccc3N2S(=O)(=O)c2ccc(-c3ccc(F)cc3F)cc2)cc1` (stereo unspecified) was 92 to 99 °C; that for `CC(=O)Nc1ccc(S(=O)(=O)Nc2cc(C)c(S(=O)(=O)C[N+](=O)[O-])c(C)c2)cc1` was 209 to 210 °C; that for `CN1CC(CNC(=N)NC(=O)c2cccnc2)CC2c3cccc4c3c(cn4C)CC21` (stereo unspecified) was 207 to 209 °C.
`Cn1c(COc2ccc(C=O)cc2)nc2ccc(Sc3cc(C(C)(C)C)c(O)c(C(C)(C)C)c3)cc21`: the melting point fell in the range of 219 to 221 °C.
The value for `COC(=O)c1ccc(-c2nc3c(OC(C)=O)cccc3s2)cc1` was 144 to 146 °C; that for `COc1cc(NCCCCCCN2CCN(C(=NC#N)SC)CC2)c2nccc(C)c2c1` was 97 to 99 °C.
The value for `Cc1c(N)ccc([N+](=O)[O-])c1Cl` was 134 to 138 °C; that for `COc1ccc(C(=O)Nc2c(Cl)cncc2Cl)c2c1oc1ccc(Br)cc12` was 308 °C.
